Literature values as cited in US20080253966A1, “Diagnostic, Prognostic, and Therapeutic Factor Smac/Diablo in Human Cancer” (The Regents of The University of California, priority 2004, published 2008).

Test system: cell lines treated with paclitaxel, etoposide, camptothecin, and doxorubicine

## first four amino acids of Smac/DIABLO: the first four amino acids of Smac/DIABLO (Arnt et al., J. Biol. Chem. 2002) (AVPI; UniProt Q9NR28 56-59, looked up, fragment)
  effect on apoptosis: increased apoptosis
